Test results from US20220202963A1, “RADIOLABELED COMPOUNDS” (Hoffmann-La Roche Inc., priority 2019, published 2022).

What was measured:
MAGL [1] = target: T1, MAGL (Homo sapiens, UniProt Q99685); assay: 2-AG assay (MAGL inhibitory activity, hydrolysis of 2-arachidonoylglycerol followed by mass spectrometry); assay type: biochemical; details: 50 pM MAGL, 8 μM 2-arachidonoylglycerol, 15 min pre-incubation, 30 min at RT
T1 sequence (Q99685 1-303): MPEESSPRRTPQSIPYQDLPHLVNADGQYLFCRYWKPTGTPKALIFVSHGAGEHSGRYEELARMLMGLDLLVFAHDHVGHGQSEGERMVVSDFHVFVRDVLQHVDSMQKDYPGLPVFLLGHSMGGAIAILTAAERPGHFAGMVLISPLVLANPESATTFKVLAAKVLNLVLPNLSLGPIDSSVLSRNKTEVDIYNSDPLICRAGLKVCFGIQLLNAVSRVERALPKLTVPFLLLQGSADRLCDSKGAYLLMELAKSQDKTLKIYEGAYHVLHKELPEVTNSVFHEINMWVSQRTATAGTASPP
Protocol: Compounds were profiled for MAGL inhibitory activity by determining the enzymatic activity by following the hydrolysis of the natural substrate, 2-arachidonoylglycerol, resulting in arachidonic acid, which can be followed by mass spectrometry. This assay is hereinafter abbreviated “2-AG assay”.
A C18 SPE cartridge (G9205A) was used in an acetonitrile/water liquid setup. […] The activity of the compounds was calculated based on the ratio of intensities [arachidonic acid/d8-arachidonic acid].

MAGL [2] = target: T2, MAGL (Mus musculus, UniProt O35678); assay: In vitro autoradiography of 3H ligands on sagittal mouse brain sections (MAGL WT and ko); details: 1 nM radioligand, 30 min; for binding on wt tissue samples (autoradiography): MAGL WT mouse brain sections; for binding on MAGL ko tissue sections (autoradiography; selectivity, non-specific binding): MAGL ko mouse brain sections
T2 sequence (O35678 1-303): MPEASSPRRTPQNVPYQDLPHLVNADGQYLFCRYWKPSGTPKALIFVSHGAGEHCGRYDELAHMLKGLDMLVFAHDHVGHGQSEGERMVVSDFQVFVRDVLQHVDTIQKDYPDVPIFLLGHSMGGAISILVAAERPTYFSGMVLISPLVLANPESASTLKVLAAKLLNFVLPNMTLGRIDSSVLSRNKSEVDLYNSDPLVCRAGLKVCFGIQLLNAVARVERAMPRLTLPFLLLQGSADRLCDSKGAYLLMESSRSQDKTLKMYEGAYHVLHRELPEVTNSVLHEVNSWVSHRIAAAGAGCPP
Protocol: Receptor autoradiography was performed on sagittal sections of fresh-frozen brains from MAGL WT and ko mice (C57BL6/6NTac-Mgllem4993_02Tac). Tissue sections (10 μm) from brain specimens were cut in a cryostat (Leica CM3050) at −17° C. chamber temperature and −15° C. object temperature and thaw-mounted on microscope glass slides (HistoBond, Paul Marienfeld GmbH, Lauda-Königshofen, Germany). Brain sections were incubated for 30 min in 50 mM Tris-HCl buffer pH 7.4 with 0.1% BSA at RT containing 1 nM of the radioligand. Sections were rinsed three times for 10 min in ice-cold 50 mM Tris-HCl buffer, followed by three dips into ice-cold H2O and air-dried at 4° C. before being exposed to tritium-sensitive imaging plates (BAS-IP TR2025, Fujifilm, Dielsdorf, Switzerland) with a tritium microscale for 5 days at RT. The imaging plates were scanned with a high-resolution phosphor imager (Fuji BAS-5000, Bucher Biotec AG, Basel, Switzerland) and the binding intensity for selected brain areas was quantified using an MCID M2 image analysis software (version 7; InterFocus Imaging GmbH, Mering, Germany).

MAGL [3] = target: T3, MAGL (Rattus norvegicus, UniProt Q8R431); assay: In vivo binding to MAGL assessed by ex vivo autoradiography in CD(SD) rats; parameters: 10 μm sagittal brain sections from Wistar rats were used in in vitro autoradiography; from tissue; host or cells: rat brain (Wistar sections; CD(SD) rats dosed in vivo); details: male CD(SD) rats, 1 mCi/kg i.v., 90 min post injection; blocked by a high dose of a MAGL inhibitor
T3 sequence (Q8R431 1-303): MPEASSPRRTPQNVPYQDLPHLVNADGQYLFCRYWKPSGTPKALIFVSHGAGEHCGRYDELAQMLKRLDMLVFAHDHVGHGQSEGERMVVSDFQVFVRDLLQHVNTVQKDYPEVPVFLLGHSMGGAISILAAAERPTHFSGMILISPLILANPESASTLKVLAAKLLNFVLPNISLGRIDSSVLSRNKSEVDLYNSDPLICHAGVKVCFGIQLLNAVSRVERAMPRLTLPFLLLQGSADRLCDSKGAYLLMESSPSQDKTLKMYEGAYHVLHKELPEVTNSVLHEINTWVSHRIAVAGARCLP
Protocol: Rats were sacrificed by decapitation 90 min after administration of the radioligand. Brains were rapidly removed and divided in two halves along their sagittal axis. The brain halves were frozen in dry ice for following cryosectioning. The hemisphere was placed in a cryostat and sagittal sections (10 μm thickness) were cut. Brain sections were mounted on Histobond glass slides (Marienfeld Laboratories Glassware, Germany), dried at room temperature and exposed, together with tritium microscales, to tritium-sensitive imaging plates (BAS-TR2025) for five days. The imaging plates were scanned in a Fujifilm BAS-5000 high resolution phosphor imager and the amount of [^3H]2 bound to the brain regions of interest was quantified with an MCID M2 image analysis system (Imaging Research Inc., St. Catherines, Ontario, Canada).

MAGL [4] = target: T3, MAGL; assay: In vitro autoradiography of 11C tracers on sagittal brain sections from Wistar rats
Protocol: 10 μm sagittal brain sections from Wistar rats were used in in vitro autoradiography. On the day of experimentation, the slices were thawed on ice (10 min) and pre-conditioned in an aqueous buffer containing 30 mM 4-(2-hydroxyethyl)-1-piperazineethanesulfonic acid (HEPES), 1.2 mM MgCl2, 110 mM NaCl, 5 mM KCl, 2.5 mM CaCl2, and 1% fatty-acid-free bovine serum albumin (pH 7.4, 0° C.) for 10 min. The tissue samples were dried in air and subsequently incubated with radiotracer or a mixture of radiotracer and a cold MAGL inhibitor as a blocker at ambient temperature for 30 min. Upon completion of the incubation time, the slices were washed once for 3 min in the aqueous buffer described above, and twice for 2 min in the aqueous buffer described without 1% fatty-acid-free bovine serum albumin. After two quick dips in distilled water, the sections were dried in the air and exposed to a phosphor image plate for 1 h. The films were scanned by a BAS5000 reader (Fuji), and the data were analyzed using AIDA software, version 4.50.010 (Raytest Isotopenmessgeräte GmbH). For [^11C]1, 10 μM SAR127303 and 10 μg/mL 10 were used as blockers.

| Structure (SMILES) | IC50 (MAGL [1]) | further results |
| --- | --- | --- |
| Cc1ccc(/C(F)=C/C2CN(C(=O)N3CC[C@@H]4OCC(=O)N[C@@H]4C3)C2)cc1F [Example 11, (4aR,8aS)-6-[3-[(Z)-2-Fluoro-2-(3-fluoro-4-methyl-phenyl)vinyl]azetidine-1-carbonyl]-4,4a,5,7,8,8a-hexahydropyrido[4,3-b][1,4]oxazin-3-one] | 90 nM |  |
| CC(C)COc1ccc(C2CN(C(=O)N3CC[C@@H]4OCC(=O)N[C@@H]4C3)C2)cc1 [Example 9, (4aR,8aS)-6-[3-(4-isobutoxyphenyl)azetidine-1-carbonyl]-4,4a,5,7,8,8a-hexahydropyrido[4,3-b][1,4]oxazin-3-one] | 1 nM |  |
| COc1cccc(F)c1CC1CC2(C1)CN(C(=O)N1CC[C@@H]3OCC(=O)N[C@@H]3C1)C2 [Example [^3H]2, [^3H](4aR,8aS)-6-[6-[(2-Fluoro-6-methoxy-phenyl)methyl]-2-azaspiro[3.3]heptane-2-carbonyl]-4,4a,5,7,8,8a-hexahydropyrido[4,3-b][1,4]oxazin-3-one] |  | binding on wt tissue samples (autoradiography) (MAGL [2]): Selective binding to MAGL; binding on MAGL ko tissue sections (autoradiography; selectivity, non-specific binding) (MAGL [2]): absence of binding; in vivo binding to MAGL in brain (ex vivo autoradiography) (MAGL [3]): Selective and specific binding to MAGL |
| O=C1CO[C@H]2CCN(C(=O)N3CC(c4ccc(C5CCC5)cc4)C3)C[C@H]2N1 [Example 5, (4aR,8aS)-6-[3-(4-Cyclobutylphenyl)azetidine-1-carbonyl]-4,4a,5,7,8,8a-hexahydropyrido[4,3-b][1,4]oxazin-3-one] | 1 nM |  |
| COc1cccc(F)c1CC1CC2(C1)CN(C(=O)N1CC[C@@H]3OCC(=O)N[C@@H]3C1)C2 [Example 2, (4aR,8aS)-6-[6-[(2-Fluoro-6-methoxy-phenyl)methyl]-2-azaspiro[3.3]heptane-2-carbonyl]-4,4a,5,7,8,8a-hexahydropyrido[4,3-b][1,4]oxazin-3-one] | 0.07 nM |  |
| COc1ccc(CCC2CN(C(=O)N3CC[C@@H]4OCC(=O)N[C@@H]4C3)C2)c(C(F)(F)F)c1 [Example [^3H]4, [^3H](4aR,8aS)-6-[3-[2-[4-Methoxy-2-(trifluoromethyl)phenyl]ethyl]azetidine-1-carbonyl]-4,4a,5,7,8,8a-hexahydropyrido[4,3-b][1,4]oxazin-3-one] |  | binding on wt tissue samples (autoradiography) (MAGL [2]): Selective binding to MAGL; binding on MAGL ko tissue sections (autoradiography; selectivity, non-specific binding) (MAGL [2]): absence of binding |
| COc1ccc(CCC2CN(C(=O)N3CC[C@@H]4OCC(=O)N[C@@H]4C3)C2)c(C(F)(F)F)c1 [Example 4, (4aR,8aS)-6-[3-[2-[4-Methoxy-2-(trifluoromethyl)phenyl]ethyl]azetidine-1-carbonyl]-4,4a,5,7,8,8a-hexahydropyrido[4,3-b][1,4]oxazin-3-one] | 6 nM |  |
| Cc1ccc(/C(F)=C\C2CN(C(=O)N3CC[C@@H]4OCC(=O)N[C@@H]4C3)C2)cc1F [Example 12, (4aR,8aS)-6-[3-[(E)-2-Fluoro-2-(3-fluoro-4-methyl-phenyl)vinyl]azetidine-1-carbonyl]-4,4a,5,7,8,8a-hexahydropyrido[4,3-b][1,4]oxazin-3-one] | 40 nM |  |
| Cc1ccc(CCC2CN(C(=O)N3CC[C@@H]4OCC(=O)N[C@@H]4C3)C2)c(F)c1 [Example [^3H]3, [^3H](4aR,8aS)-6-[3-[2-(2-Fluoro-4-methyl-phenyl)ethyl]azetidine-1-carbonyl]-4,4a,5,7,8,8a-hexahydropyrido[4,3-b][1,4]oxazin-3-one] |  | binding on wt tissue samples (autoradiography) (MAGL [2]): Selective binding to MAGL; binding on MAGL ko tissue sections (autoradiography; selectivity, non-specific binding) (MAGL [2]): absence of binding |
| O=C1CO[C@H]2CCN(C(=O)N3CC(c4ccc(C5CCC5)cc4)C3)C[C@H]2N1 [Example [^11C]5, [^11C](4aR,8aS)-6-[3-(4-Cyclobutylphenyl)azetidine-1-carbonyl]-4,4a,5,7,8,8a-hexahydropyrido[4,3-b][1,4]oxazin-3-one] |  | binding to MAGL on sagittal rat brain sections (autoradiography) (MAGL [4]; Wistar rat brain sections, radiotracer alone, 30 min): selectively bind to MAGL; blocking of binding by cold MAGL inhibitors (MAGL [4]; co-incubation with blockers (10 μM SAR127303 and 10 μg/mL 10 for [11C]1; 10 μM SAR127303 and 10 μM PF-06795071 for [11C]5)): binding can be blocked |

Now from value to compound, other results behind:

| IC50 (MAGL [1]) | Structure (SMILES) | further results |
| --- | --- | --- |
| 0.1 nM | O=C1CO[C@H]2CCN(C(=O)N3CC4(CC(Cc5c(F)cccc5F)C4)C3)C[C@H]2N1 [Example 6, (4aR,8aS)-6-[6-[(2,6-Difluorophenyl)methyl]-2-azaspiro[3.3]heptane-2-carbonyl]-4,4a,5,7,8,8a-hexahydropyrido[4,3-b][1,4]oxazin-3-one] |  |
| 20 nM | Cc1ccc(C(F)=CC2CN(C(=O)N3CC[C@@H]4OCC(=O)N[C@@H]4C3)C2)cc1F (mixture of isomers) [Example 10, (4aR,8aS)-6-[3-[2-Fluoro-2-(3-fluoro-4-methyl-phenyl)vinyl]azetidine-1-carbonyl]-4,4a,5,7,8,8a-hexahydropyrido[4,3-b][1,4]oxazin-3-one] |  |
| 5 nM | Cc1ccc(CCC2CN(C(=O)N3CC[C@@H]4OCC(=O)N[C@@H]4C3)C2)c(F)c1 [Example 3, (4aR,8aS)-6-[3-[2-(2-Fluoro-4-methyl-phenyl)ethyl]azetidine-1-carbonyl]-4,4a,5,7,8,8a-hexahydropyrido[4,3-b][1,4]oxazin-3-one] |  |
| 0.2 nM | COc1ccccc1CC1CC2(C1)CN(C(=O)N1CC[C@@H]3OCC(=O)N[C@@H]3C1)C2 [Example 7, (4aR,8aS)-6-[6-[(2-Methoxyphenyl)methyl]-2-azaspiro[3.3]heptane-2-carbonyl]-4,4a,5,7,8,8a-hexahydropyrido[4,3-b][1,4]oxazin-3-one] |  |
